For assay [1], the target named is T1, Sentrin-specific protease 7 (Homo sapiens, UniProt Q9BQF6).
T1 sequence (Q9BQF6 whole entry): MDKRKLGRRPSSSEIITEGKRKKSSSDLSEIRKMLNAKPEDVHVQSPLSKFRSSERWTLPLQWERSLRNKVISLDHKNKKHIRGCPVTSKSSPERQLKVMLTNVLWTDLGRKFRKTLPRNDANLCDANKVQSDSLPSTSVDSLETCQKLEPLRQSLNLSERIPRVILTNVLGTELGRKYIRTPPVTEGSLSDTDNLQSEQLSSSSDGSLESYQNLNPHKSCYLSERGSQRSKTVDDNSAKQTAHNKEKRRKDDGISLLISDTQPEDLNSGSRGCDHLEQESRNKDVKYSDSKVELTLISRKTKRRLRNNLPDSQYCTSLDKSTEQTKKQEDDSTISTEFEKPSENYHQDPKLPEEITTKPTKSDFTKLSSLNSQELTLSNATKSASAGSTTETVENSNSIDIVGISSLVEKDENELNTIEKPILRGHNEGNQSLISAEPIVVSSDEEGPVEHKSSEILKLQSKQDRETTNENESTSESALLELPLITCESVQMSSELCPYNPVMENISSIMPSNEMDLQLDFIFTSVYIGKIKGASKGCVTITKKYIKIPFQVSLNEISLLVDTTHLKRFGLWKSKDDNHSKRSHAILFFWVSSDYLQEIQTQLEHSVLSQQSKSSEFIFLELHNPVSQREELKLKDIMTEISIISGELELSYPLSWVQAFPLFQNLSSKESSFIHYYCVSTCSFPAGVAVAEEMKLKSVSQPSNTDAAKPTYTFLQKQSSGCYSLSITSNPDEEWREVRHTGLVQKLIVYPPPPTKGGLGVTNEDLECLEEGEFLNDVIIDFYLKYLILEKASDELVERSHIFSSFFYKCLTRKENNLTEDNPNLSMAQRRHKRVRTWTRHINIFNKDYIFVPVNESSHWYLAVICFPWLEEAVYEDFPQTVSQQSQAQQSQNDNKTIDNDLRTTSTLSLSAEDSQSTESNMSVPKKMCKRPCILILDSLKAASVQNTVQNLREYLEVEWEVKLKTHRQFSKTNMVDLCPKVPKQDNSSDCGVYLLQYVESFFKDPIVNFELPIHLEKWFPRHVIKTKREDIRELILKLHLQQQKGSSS
In words: SENP7 protease inhibitors, SAR follow-up, biochemical, luminescence (AID 504497). The class given is functional.

The next assay has as its target T2, Caspase-3 (Homo sapiens, UniProt P42574).
T2 sequence (P42574 whole entry): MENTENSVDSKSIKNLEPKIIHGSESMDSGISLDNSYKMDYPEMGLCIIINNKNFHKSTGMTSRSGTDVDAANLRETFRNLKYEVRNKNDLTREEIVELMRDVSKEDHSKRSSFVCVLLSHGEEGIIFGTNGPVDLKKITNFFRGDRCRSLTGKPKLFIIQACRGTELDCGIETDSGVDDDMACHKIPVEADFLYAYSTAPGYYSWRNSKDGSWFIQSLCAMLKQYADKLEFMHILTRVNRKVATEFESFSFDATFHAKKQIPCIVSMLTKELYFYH
The assay can be described thus: SAR Analysis of small molecule inhibitors of Sentrin-specific proteases (SENPs) using a Caspase-3 Selectivity assay. [Related pubchem assays (depositor defined):AID2540, AID2599, AID434973, AID489001]. The assay is classed as functional.

For assay [2], the target named is T3, Sentrin-specific protease 6 (Homo sapiens, UniProt Q9GZR1).
T3 sequence (Q9GZR1 whole entry): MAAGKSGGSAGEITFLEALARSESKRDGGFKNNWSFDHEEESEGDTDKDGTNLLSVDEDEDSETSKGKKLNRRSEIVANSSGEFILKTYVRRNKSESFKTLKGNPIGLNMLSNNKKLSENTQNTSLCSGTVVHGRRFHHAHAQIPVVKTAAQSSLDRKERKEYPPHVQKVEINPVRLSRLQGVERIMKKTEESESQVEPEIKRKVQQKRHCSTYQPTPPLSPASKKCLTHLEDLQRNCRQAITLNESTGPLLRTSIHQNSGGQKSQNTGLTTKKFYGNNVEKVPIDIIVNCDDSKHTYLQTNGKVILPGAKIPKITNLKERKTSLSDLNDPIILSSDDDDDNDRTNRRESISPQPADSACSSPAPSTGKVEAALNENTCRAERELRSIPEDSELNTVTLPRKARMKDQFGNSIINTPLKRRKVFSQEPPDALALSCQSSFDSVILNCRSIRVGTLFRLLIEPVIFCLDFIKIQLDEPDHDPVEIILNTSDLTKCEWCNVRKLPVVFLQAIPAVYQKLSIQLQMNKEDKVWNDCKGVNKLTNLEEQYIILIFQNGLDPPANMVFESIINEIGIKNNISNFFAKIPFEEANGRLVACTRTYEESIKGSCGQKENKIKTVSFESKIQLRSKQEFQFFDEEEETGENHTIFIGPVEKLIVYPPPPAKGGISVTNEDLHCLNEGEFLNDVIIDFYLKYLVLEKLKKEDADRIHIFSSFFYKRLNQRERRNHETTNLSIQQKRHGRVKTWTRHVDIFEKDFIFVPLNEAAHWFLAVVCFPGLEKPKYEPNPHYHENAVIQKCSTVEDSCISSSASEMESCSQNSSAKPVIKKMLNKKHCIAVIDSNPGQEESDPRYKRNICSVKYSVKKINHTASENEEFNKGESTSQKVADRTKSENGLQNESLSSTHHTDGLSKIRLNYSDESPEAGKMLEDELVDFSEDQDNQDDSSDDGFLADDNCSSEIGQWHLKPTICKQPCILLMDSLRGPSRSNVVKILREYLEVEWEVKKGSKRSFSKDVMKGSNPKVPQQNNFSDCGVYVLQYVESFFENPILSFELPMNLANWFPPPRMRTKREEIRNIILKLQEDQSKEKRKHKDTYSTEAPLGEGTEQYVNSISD
In words: SAR Analysis of small molecule inhibitors of Sentrin-specific protease 6 (SENP6) using a Luminescent assay. [Related pubchem assays (depositor defined):AID2582, AID2599]. The class given is functional.

Assay [3] deals with T4, Sentrin-specific protease 8 (Homo sapiens, UniProt Q96LD8).
T4 sequence (Q96LD8 whole entry): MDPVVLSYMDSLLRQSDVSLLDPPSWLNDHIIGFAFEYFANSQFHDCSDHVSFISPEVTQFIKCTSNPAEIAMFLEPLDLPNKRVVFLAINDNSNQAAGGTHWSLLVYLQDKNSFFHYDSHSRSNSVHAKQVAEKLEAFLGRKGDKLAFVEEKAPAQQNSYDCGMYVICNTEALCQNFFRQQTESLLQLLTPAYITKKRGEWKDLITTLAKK
The assay can be described thus: SENP8 protease inhibitors, SAR follow-up, biochemical, luminescence (AID 504501). The class given is functional.

The subject of assay [4] is HEK293. The assay can be described thus: optical interference in Abeta FP readout, dose response, artefact control for IDE activator project, biochemical, fluorescence polarization (AID 588442). The class given is functional, cell-based. The settings on record: Homo sapiens. On the technique in general: Polarisation of emitted light reports the rotation of a fluorescent probe.

Assay [5] has as its target T5, Insulin-degrading enzyme (Homo sapiens, UniProt P14735).
T5 sequence (P14735 whole entry): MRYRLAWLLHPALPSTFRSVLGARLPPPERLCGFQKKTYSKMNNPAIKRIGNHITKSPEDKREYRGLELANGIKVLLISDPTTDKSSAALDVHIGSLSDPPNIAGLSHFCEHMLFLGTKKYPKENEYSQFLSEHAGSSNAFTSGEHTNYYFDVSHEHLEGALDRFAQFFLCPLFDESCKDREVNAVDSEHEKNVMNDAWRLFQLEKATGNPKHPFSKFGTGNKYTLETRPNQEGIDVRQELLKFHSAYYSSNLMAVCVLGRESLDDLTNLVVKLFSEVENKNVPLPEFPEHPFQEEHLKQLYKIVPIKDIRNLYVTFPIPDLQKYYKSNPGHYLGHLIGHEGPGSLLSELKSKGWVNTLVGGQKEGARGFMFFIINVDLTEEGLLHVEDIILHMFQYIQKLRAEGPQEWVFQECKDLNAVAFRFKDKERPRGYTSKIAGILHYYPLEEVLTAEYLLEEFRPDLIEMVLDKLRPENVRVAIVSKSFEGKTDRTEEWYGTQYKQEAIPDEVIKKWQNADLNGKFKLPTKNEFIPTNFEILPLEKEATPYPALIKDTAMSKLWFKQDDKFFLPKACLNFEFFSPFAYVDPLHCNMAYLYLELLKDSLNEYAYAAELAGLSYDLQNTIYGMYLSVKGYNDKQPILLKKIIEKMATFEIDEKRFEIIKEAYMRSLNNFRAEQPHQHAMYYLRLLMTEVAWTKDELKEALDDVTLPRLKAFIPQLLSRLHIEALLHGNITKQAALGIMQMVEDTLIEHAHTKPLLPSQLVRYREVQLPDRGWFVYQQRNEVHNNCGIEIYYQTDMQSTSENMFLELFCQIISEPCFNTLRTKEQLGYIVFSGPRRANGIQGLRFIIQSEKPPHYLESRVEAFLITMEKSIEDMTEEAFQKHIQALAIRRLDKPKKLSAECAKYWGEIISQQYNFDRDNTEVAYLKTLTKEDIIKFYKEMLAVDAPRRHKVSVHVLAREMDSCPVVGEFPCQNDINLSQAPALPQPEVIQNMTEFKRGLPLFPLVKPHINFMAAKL
The assay can be described thus: activators of recombinant IDE enzyme, dose response, counter-screen for IDE activator project, biochemical, fluorescence polarization (AID 588681).

For assay [6], the target named is Voltage-gated inwardly rectifying potassium channel KCNH2 (Homo sapiens, UniProt Q12809). The settings on record: Potency.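 Further: confirmatory quantitative high-throughput screen measuring inhibition of hERG channel activity.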
Assay [7] has as its target NAD-dependent protein deacylase sirtuin-5, mitochondrial (Homo sapiens, UniProt Q9NXA8). The assay can be described thus: SIRT5 desuccinylase inhibitors, dose response, biochemical, fluorescence imaging, cherry-pick, set 5 (AID 720591).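 Further: desuccinylation of succinyl peptide AMC substrate read as fluorescence after trypsin release; potency of inhibitors that lower fluorescence and may act on trypsin instead.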
The nature of assay [8]: Luminescence Cell-Based Dose Retest to Confirm Inhibitors of Cancer Stem Cells. [Related pubchem assays (depositor defined):AID2717, AID2721]. The class given is functional. Particulars: Homo sapiens.
The target in another assay is Mu-type opioid receptor (Homo sapiens, UniProt P35372). The assay is classed as functional, cell-based.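 Further: U2OS cells with beta-arrestin recruitment to OPRM1 by beta-gal complementation.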
Assay [9] deals with 5-hydroxytryptamine receptor 2A (Mus musculus, UniProt P35363). The class given is functional, cell-based.
Assay [10] has as its target T5, Insulin-degrading enzyme. In words: activators of endogenous IDE in HEK cells, dose response, cell-based, fluorescence polarization (AID 588439). The assay is classed as functional.
A further assay addresses T6, Cytochrome P450 1A2 (Homo sapiens, UniProt P05177).
T6 sequence (P05177 whole entry): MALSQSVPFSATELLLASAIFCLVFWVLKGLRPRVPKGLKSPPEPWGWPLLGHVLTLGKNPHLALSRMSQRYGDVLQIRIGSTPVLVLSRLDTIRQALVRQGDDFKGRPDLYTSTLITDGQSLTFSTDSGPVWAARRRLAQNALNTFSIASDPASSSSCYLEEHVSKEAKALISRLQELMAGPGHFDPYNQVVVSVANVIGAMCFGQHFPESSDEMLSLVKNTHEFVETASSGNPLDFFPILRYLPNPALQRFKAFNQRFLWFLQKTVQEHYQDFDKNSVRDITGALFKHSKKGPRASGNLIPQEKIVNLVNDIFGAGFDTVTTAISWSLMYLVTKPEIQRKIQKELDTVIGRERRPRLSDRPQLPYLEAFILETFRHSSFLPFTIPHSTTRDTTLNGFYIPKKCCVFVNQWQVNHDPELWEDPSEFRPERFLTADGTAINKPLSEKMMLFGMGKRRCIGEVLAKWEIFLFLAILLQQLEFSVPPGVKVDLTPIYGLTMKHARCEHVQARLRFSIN

Assay [11] relates to HEK293. The assay can be described thus: HEK cell cytotoxicity by LDH release, dose response, cytotoxicity control for IDE activator project, fluorescence, HEK cells (AID 588440).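 Further: cytotoxicity by LDH release measuring loss of membrane integrity.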 The class given is functional, cell-based. Particulars: Homo sapiens.

Activity calls are given as the source filed them. Bounds are passed on as bounds.

Chain of Voltage-gated inwardly rectifying potassium channel KCNH2 (Q12809 whole entry): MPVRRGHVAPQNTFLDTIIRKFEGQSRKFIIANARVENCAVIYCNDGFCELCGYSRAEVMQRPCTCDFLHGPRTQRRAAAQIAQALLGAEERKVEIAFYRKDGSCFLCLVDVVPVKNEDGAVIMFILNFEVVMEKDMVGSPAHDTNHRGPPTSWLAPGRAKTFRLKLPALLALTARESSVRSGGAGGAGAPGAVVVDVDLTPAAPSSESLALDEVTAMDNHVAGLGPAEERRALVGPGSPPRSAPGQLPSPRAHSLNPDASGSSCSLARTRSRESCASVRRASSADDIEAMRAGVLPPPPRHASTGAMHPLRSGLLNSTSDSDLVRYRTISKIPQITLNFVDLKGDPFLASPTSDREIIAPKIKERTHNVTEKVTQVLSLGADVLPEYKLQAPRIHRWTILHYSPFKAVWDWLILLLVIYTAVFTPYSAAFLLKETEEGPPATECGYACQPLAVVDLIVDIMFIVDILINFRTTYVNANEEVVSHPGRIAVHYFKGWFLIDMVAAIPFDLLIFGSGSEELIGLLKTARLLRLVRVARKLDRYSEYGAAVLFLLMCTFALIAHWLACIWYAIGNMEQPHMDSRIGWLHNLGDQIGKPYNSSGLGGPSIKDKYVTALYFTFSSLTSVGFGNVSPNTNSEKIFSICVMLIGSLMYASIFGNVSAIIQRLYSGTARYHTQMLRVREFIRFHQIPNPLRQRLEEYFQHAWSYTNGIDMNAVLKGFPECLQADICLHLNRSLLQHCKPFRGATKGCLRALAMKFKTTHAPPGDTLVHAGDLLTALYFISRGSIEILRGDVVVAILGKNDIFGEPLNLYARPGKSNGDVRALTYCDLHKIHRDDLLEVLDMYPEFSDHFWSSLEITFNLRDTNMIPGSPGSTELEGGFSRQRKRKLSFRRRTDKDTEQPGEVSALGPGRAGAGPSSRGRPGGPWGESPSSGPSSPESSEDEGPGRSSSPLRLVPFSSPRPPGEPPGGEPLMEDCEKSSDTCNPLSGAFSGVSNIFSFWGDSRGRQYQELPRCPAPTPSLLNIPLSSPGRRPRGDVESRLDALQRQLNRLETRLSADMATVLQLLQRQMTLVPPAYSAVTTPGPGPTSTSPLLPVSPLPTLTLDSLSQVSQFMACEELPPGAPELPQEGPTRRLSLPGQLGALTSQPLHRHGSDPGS
Chain of 5-hydroxytryptamine receptor 2A (P35363 whole entry): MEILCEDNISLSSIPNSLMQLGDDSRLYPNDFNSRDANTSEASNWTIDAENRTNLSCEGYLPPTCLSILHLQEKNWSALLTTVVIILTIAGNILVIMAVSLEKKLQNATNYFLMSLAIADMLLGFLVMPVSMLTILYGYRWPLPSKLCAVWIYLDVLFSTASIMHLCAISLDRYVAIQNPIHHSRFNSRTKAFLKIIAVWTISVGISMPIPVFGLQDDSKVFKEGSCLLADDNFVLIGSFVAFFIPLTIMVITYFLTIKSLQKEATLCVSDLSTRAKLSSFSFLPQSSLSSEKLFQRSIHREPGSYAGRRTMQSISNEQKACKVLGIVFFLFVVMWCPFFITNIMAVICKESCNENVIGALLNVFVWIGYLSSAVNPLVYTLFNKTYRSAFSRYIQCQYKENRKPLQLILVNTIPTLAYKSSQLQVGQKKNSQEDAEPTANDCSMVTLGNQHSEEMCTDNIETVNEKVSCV
Chain of Mu-type opioid receptor (P35372 whole entry): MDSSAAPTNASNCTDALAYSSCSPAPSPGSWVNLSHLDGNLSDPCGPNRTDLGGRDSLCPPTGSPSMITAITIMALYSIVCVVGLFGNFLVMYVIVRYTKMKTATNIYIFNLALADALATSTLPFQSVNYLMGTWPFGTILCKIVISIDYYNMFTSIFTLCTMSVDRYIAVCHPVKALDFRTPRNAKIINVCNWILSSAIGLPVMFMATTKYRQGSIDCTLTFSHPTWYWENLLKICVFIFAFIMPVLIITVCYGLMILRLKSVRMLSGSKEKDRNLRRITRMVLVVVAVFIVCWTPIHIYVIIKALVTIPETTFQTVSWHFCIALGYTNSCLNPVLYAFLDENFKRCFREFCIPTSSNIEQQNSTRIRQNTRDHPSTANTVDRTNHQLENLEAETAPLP
Chain of NAD-dependent protein deacylase sirtuin-5, mitochondrial (Q9NXA8 whole entry): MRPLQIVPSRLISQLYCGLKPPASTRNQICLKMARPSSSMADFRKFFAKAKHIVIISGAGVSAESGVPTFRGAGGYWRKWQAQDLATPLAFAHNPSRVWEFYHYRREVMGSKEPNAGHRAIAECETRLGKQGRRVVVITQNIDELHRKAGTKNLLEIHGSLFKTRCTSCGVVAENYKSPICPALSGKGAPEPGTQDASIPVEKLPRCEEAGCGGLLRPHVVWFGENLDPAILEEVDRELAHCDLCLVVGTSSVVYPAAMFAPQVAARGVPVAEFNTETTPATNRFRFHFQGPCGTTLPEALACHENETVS

The IC50 is the concentration at which inhibition is half-maximal. As for `O=C(NCCc1ccccc1)C(=O)c1c[nH]c2ccccc12`, the IC50 (in [1]; on Caspase-3; in assay [2]; in assay [3]) was > 99 µM (inactive) throughout.
The term EC50 denotes the concentration giving half of the maximal effect. For orientation: AC50 means the concentration giving half of the maximal activity seen. In the case of `CCCCCCCC/C=C\CCCCCCCC(=O)NCCc1ccc(O)c(O)c1` [OLEOYL DOPAMINE], the EC50 in the assay on HEK293 [4] is > 54.7 µM (inactive); on Insulin-degrading enzyme [5] it was > 54.7 µM (inactive); at Mu-type opioid receptor it was 92.3 µM (inactive); in [9] it was 0.957 µM (active); at Insulin-degrading enzyme [10] it was 8.94 µM (active). The AC50 was 35.5 µM (inconclusive) in [6], 18.1 µM (active) in assay [7], 2.59 µM (active) in assay [8] and 20 µM (inconclusive) at Cytochrome P450 1A2. In the assay with HEK293 [11], the IC50 is 30.5 µM (inactive).

For the origin of these results see ChEMBL document CHEMBL1201862, “PubChem BioAssay data set” (2004).
